Laboratory results reported in ChEMBL document CHEMBL3885881, “DrugMatrix”.

Species: Rattus norvegicus
Assay: DrugMatrix - Regimen: Daily Repeat
Type: toxicity, organism-based, Sprague-Dawley
Design: regimen Daily Repeat, gender Male, age 6-8 weeks
Conditions: in vivo, po, route oral GAVAGE, […]; for ABSOLUTE BASOPHIL / ABSOLUTE EOSINOPHIL / ABSOLUTE LYMPHOCYTE / ABSOLUTE MONOCYTE / ABSOLUTE SEGMENTED NEUTROPHIL / BASOPHIL / EOSINOPHIL / ERYTHROCYTE COUNT / HEMATOCRIT / HEMOGLOBIN / LEUKOCYTE COUNT / LYMPHOCYTE / MEAN CORPUSCULAR HEMOGLOBIN / MEAN CORPUSCULAR HEMOGLOBIN CONCENTRATION / MEAN CORPUSCULAR VOLUME / MONOCYTE / NEUTROPHIL / NUCLEATED RED BLOOD CELLS / PLATELET COUNT: tissue Blood; for ALANINE AMINOTRANSFERASE / ALBUMIN / ALKALINE PHOSPHATASE / ASPARTATE AMINOTRANSFERASE / BLOOD UREA NITROGEN / CARBON DIOXIDE / CHLORIDE / CHOLESTEROL / CREATINE PHOSPHOKINASE / CREATININE / GLUCOSE / LACTATE DEHYDROGENASE / LIPASE / PHOSPHORUS / POTASSIUM / SODIUM / TOTAL BILIRUBIN / TOTAL PROTEIN / URIC ACID: tissue Plasma
[1] = 0 mg/kg, 72 h, dose level Control, time 3 day
[2] = 0 mg/kg, 120 h, dose level Control, time 5 day
[3] = 12 mg/kg, 72 h, dose level Low, time 3 day

CO[C@H]1/C=C/O[C@@]2(C)Oc3c(C)c(O)c4c(O)c(c(/C=N/N5CCN(C6CCCC6)CC5)c(O)c4c3C2=O)NC(=O)/C(C)=C\C=C\[C@H](C)[C@H](O)[C@@H](C)[C@@H](O)[C@@H](C)[C@H](OC(C)=O)[C@@H]1C [RIFAPENTINE]
ABSOLUTE BASOPHIL [1]: 0 CELLS/uL
ABSOLUTE EOSINOPHIL [1]: 179.67 CELLS/uL
ABSOLUTE LYMPHOCYTE [1]: 11440.17 CELLS/uL
ABSOLUTE MONOCYTE [1]: 128.83 CELLS/uL
ABSOLUTE SEGMENTED NEUTROPHIL [1]: 1051.33 CELLS/uL
BASOPHIL [1]: 0%
EOSINOPHIL [1]: 1.33%
ERYTHROCYTE COUNT [1]: 5.53 x10E6/uL
HEMATOCRIT [1]: 34.75%
HEMOGLOBIN [1]: 12.88 G/DL
LEUKOCYTE COUNT [1]: 12.8 x10E3/uL
LYMPHOCYTE [1]: 89.5%
MEAN CORPUSCULAR HEMOGLOBIN [1]: 23.38 pg
MEAN CORPUSCULAR HEMOGLOBIN CONCENTRATION [1]: 37.12 G/DL
MEAN CORPUSCULAR VOLUME [1]: 62.88 fL
MONOCYTE [1]: 1%
NEUTROPHIL [1]: 8.17%
NUCLEATED RED BLOOD CELLS [1]: 0 /100WBC
PLATELET COUNT [1]: 1292 x10E3/uL
ALANINE AMINOTRANSFERASE [1]: 58.67 u/L
ALBUMIN [1]: 4.25 G/DL
ALKALINE PHOSPHATASE [1]: 437.83 u/L
ASPARTATE AMINOTRANSFERASE [1]: 85.17 u/L
BLOOD UREA NITROGEN [1]: 14.17 mg/dL
CARBON DIOXIDE [1]: 28.67 mmol/L
CHLORIDE [1]: 102.17 MEQ/L
CHOLESTEROL [1]: 68.5 mg/dL
CREATINE PHOSPHOKINASE [1]: 271.83 u/L
CREATININE [1]: 0.2 mg/dL
GLUCOSE [1]: 156.67 mg/dL
LACTATE DEHYDROGENASE [1]: 112.33 u/L
LIPASE [1]: 9.33 u/L
PHOSPHORUS [1]: 11.1 mg/dL
POTASSIUM [1]: 6.46 MEQ/L
SODIUM [1]: 144.37 MEQ/L
TOTAL BILIRUBIN [1]: 0.23 mg/dL
TOTAL PROTEIN [1]: 5.8 G/DL
URIC ACID [1]: 1.55 mg/dL
ABSOLUTE BASOPHIL [2]: 0 CELLS/uL
ABSOLUTE EOSINOPHIL [2]: 87 CELLS/uL
ABSOLUTE LYMPHOCYTE [2]: 14743.5 CELLS/uL
ABSOLUTE MONOCYTE [2]: 187 CELLS/uL
ABSOLUTE SEGMENTED NEUTROPHIL [2]: 1499.17 CELLS/uL
BASOPHIL [2]: 0%
EOSINOPHIL [2]: 0.5%
ERYTHROCYTE COUNT [2]: 5.84 x10E6/uL
HEMATOCRIT [2]: 36.3%
HEMOGLOBIN [2]: 13.55 G/DL
LEUKOCYTE COUNT [2]: 16.52 x10E3/uL
LYMPHOCYTE [2]: 89.5%
MEAN CORPUSCULAR HEMOGLOBIN [2]: 23.25 pg
MEAN CORPUSCULAR HEMOGLOBIN CONCENTRATION [2]: 37.35 G/DL
MEAN CORPUSCULAR VOLUME [2]: 62.27 fL
MONOCYTE [2]: 1.17%
NEUTROPHIL [2]: 8.83%
NUCLEATED RED BLOOD CELLS [2]: 0.17 /100WBC
PLATELET COUNT [2]: 1233.5 x10E3/uL
ALANINE AMINOTRANSFERASE [2]: 62.5 u/L
ALBUMIN [2]: 4.17 G/DL
ALKALINE PHOSPHATASE [2]: 464.33 u/L
ASPARTATE AMINOTRANSFERASE [2]: 99.67 u/L
BLOOD UREA NITROGEN [2]: 14.33 mg/dL
CARBON DIOXIDE [2]: 26 mmol/L
CHLORIDE [2]: 102.33 MEQ/L
CHOLESTEROL [2]: 60.67 mg/dL
CREATINE PHOSPHOKINASE [2]: 402.5 u/L
CREATININE [2]: 0.22 mg/dL
GLUCOSE [2]: 173.5 mg/dL
LACTATE DEHYDROGENASE [2]: 518.17 u/L
LIPASE [2]: 10.83 u/L
PHOSPHORUS [2]: 11.4 mg/dL
POTASSIUM [2]: 6.13 MEQ/L
SODIUM [2]: 142.63 MEQ/L
TOTAL BILIRUBIN [2]: 0.17 mg/dL
TOTAL PROTEIN [2]: 6.1 G/DL
URIC ACID [2]: 1.97 mg/dL
ABSOLUTE BASOPHIL [3]: 0 CELLS/uL
ABSOLUTE EOSINOPHIL [3]: 44.67 CELLS/uL
ABSOLUTE LYMPHOCYTE [3]: 14914 CELLS/uL
ABSOLUTE MONOCYTE [3]: 225.33 CELLS/uL
ABSOLUTE SEGMENTED NEUTROPHIL [3]: 1216 CELLS/uL
BASOPHIL [3]: 0%
EOSINOPHIL [3]: 0.33%
ERYTHROCYTE COUNT [3]: 5.83 x10E6/uL
HEMATOCRIT [3]: 34.83%
HEMOGLOBIN [3]: 12.73 G/DL
LEUKOCYTE COUNT [3]: 16.4 x10E3/uL
LYMPHOCYTE [3]: 91%
MEAN CORPUSCULAR HEMOGLOBIN [3]: 21.83 pg
MEAN CORPUSCULAR HEMOGLOBIN CONCENTRATION [3]: 36.57 G/DL
MEAN CORPUSCULAR VOLUME [3]: 59.7 fL
MONOCYTE [3]: 1.33%
NEUTROPHIL [3]: 7.33%
NUCLEATED RED BLOOD CELLS [3]: 0 /100WBC
PLATELET COUNT [3]: 1540.67 x10E3/uL
ALANINE AMINOTRANSFERASE [3]: 75 u/L
ALBUMIN [3]: 4.13 G/DL
ALKALINE PHOSPHATASE [3]: 400.33 u/L
ASPARTATE AMINOTRANSFERASE [3]: 93.33 u/L
BLOOD UREA NITROGEN [3]: 15 mg/dL
CARBON DIOXIDE [3]: 28 mmol/L
CHLORIDE [3]: 102 MEQ/L
CHOLESTEROL [3]: 69.33 mg/dL
CREATINE PHOSPHOKINASE [3]: 485.67 u/L
CREATININE [3]: 0.15 mg/dL
GLUCOSE [3]: 166.67 mg/dL
LACTATE DEHYDROGENASE [3]: 138 u/L
LIPASE [3]: 10 u/L
PHOSPHORUS [3]: 11.53 mg/dL
POTASSIUM [3]: 6.47 MEQ/L
SODIUM [3]: 141.97 MEQ/L
TOTAL BILIRUBIN [3]: 0.23 mg/dL
TOTAL PROTEIN [3]: 5.43 G/DL
URIC ACID [3]: 1.6 mg/dL
